Assay results reported in patent US11141462B2, “Method for the treatment or prevention of osteoarthritis” (Chondropeptix B.V., priority 2016, dated 2021).

Tested on: OA articular chondrocytes
Assay: OA chondrocyte phenotype gene expression screening of BMP-7 peptides (RT-qPCR)
Type: cell-based, human
Parameters: key to COX-2 / COL2A1 / SOX9: [+] denotes a significantly increased expression of chondrogenic marker genes SOX9 and COL2A1, or a significantly decreased expression of OA phenotypic marker COX-2 in OA articular chondrocytes, in comparison to untreated OA articular chondrocytes; key to IL-6 / ADAMTS5 / COL10A / BAPX1/NKX3.2 / ALP / RUNX2: —: [-] denotes the absence of a significant effect or a significantly decreased expression of chondrogenic marker genes BAPX1/NKX3.2, or a significantly increased expression of OA phenotypic markers IL-6, ADAMTS5, COL10A, ALP and RUNX2 in OA articular chondrocytes, in comparison to untreated OA articular chondrocytes
Conditions: for COL2A1 / COX-2 / SOX9: Table 5
Experimental: (§1) FIG. 2: The action of 20-mer peptides (10 nM) of SEQ ID NO: 2-17 (peptides with 1 or 2 amino acids intervals (18-19 amino acid overlap)) and a random peptide with a sequence according to SEQ ID NO: 49 on the expression of ADAMTS5 was determined on a validated pool of passage 2 OA human articular chondrocytes (n=18) and compared to full-length recombinant BMP-7 (1 nM). Samples were harvested after 24 hours and analyzed for indicated genes by RT-qPCR (normalized for 28S rRNA expression and relative to control conditions (no peptide exposure)). In the graphs, numbers on the x-axis represent individual peptides according to their SEQ ID NO's, error bars represent mean±SEM, statistical differences were calculated (one-way ANOVA with bonferroni correction) to control condition. *=p<0.05 lower than control condition for ADAMTS5. Random peptide is a peptide according to SEQ ID NO: 49.
as §1, with “3:” for “2:”, “ALP” for “ADAMTS5”, “ALP.” for “ADAMTS5.”
as §1, with “4:” for “2:”, “BAPX1/NKX3.2” for “ADAMTS5”, “BAPX1/NKX3.2.” for “ADAMTS5.”
as §1, with “5:” for “2:”, “COL10A1” for “ADAMTS5”, “COL10A1.” for “ADAMTS5.”
FIG. 6: The action of 20-mer peptides (10 nM) of SEQ ID NO: 2-17 (peptides with 1 or 2 amino acids intervals (18-19 amino acid overlap)) and a random peptide with a sequence according to SEQ ID NO: 49 on the expression of IL-6 was determined on a validated pool of passage 2 OA human articular chondrocytes (n=18) and compared to full-length recombinant BMP-7 (1 nM). […]

[1] = Table 2 (FIG. 2: 10 nM, 24 hours, RT-qPCR, 28S rRNA normalized), vs untreated OA articular chondrocytes
[2] = Table 2 (FIG. 3: 10 nM, 24 hours, RT-qPCR, 28S rRNA normalized), vs untreated OA articular chondrocytes
[3] = Table 2 (FIG. 4: 10 nM, 24 hours, RT-qPCR, 28S rRNA normalized), vs untreated OA articular chondrocytes
[4] = Table 2 (FIG. 5: 10 nM, 24 hours, RT-qPCR, 28S rRNA normalized), vs untreated OA articular chondrocytes
[5] = Table 2 (FIG. 6: 10 nM, 24 hours, RT-qPCR, 28S rRNA normalized), vs untreated OA articular chondrocytes
[6] = Table 2 (FIG. 7: 10 nM, 24 hours, RT-qPCR, 28S rRNA normalized), vs untreated OA articular chondrocytes
[7] = gene expression in OA articular chondrocytes vs untreated
[8] = Table 1, gene expression in OA articular chondrocytes vs untreated

Row | Substance | ADAMTS5 [1] | ALP [2] | BAPX1/NKX3.2 [3] | COL10A [4] | IL-6 [5] | RUNX2 [6] | COL2A1 [7] | COX-2 [7] | SOX9 [7] | ADAMTS5 [8] | ALP [8] | BAPX1/NKX3.2 [8] | COL10A [8] | IL-6 [8] | RUNX2 [8]
1 | 1 (FINPETVPKPSSAPTQLNAISVLYFDDSSNVILKKYRNMVVRASGSH; listed as Homo sapiens) [compound 1] | — | — | — | — | — | — |  |  |  |  |  |  |  |  | 
2 | 2 (FINPETVPKPSSAPTQLNAI; listed as Homo sapiens) [compound 2] | — | — | — | — | — | — |  |  |  |  |  |  |  |  | 
3 | 3 (NPETVPKPSSAPTQLNAISV; listed as Homo sapiens) [compound 3] | — | — | — | — | — | — |  |  |  |  |  |  |  |  | 
4 | 4 (ETVPKPSSAPTQLNAISVLY; listed as Homo sapiens) [compound 4] | — | — | — | — | — | — |  |  |  |  |  |  |  |  | 
5 | 5 (VPKPSSAPTQLNAISVLYFD; listed as Homo sapiens) [compound 5] | — | — | — | — | — | + |  |  |  |  |  |  |  |  | 
6 | 6 (PKPSSAPTQLNAISVLYFDD; listed as Homo sapiens) [compound 6] | + | + | + | + | + | + | + | + | + |  |  |  |  |  | 
7 | 7 (KPSSAPTQLNAISVLYFDDS; listed as Homo sapiens) [compound 7] | + | + | + | + | + | + | + | + | + |  |  |  |  |  | 
8 | 8 (SSAPTQLNAISVLYFDDSSN; listed as Homo sapiens) [compound 8] | + | + | + | + | + | + | + | + | + |  |  |  |  |  | 
9 | 9 (APTQLNAISVLYFDDSSNVI; listed as Homo sapiens) [compound 9] | + | + | + | - | + | + | + | + | + |  |  |  |  |  | 
10 | 10 (TQLNAISVLYFDDSSNVILK; listed as Homo sapiens) [compound 10] | + | + | + | - | + | + | + | + | + |  |  |  |  |  | 
11 | 11 (LNAISVLYFDDSSNVILKKY; listed as Homo sapiens) [compound 11] | + | + | + | + | + | + | + | + | + |  |  |  |  |  | 
12 | 12 (AISVLYFDDSSNVILKKYRN; listed as Homo sapiens) [compound 12] | + | + | + | + | + | + | + | + | + |  |  |  |  |  | 
13 | 13 (SVLYFDDSSNVILKKYRNMV; listed as Homo sapiens) [compound 13] | + | + | + | + | + | + | + | + | + |  |  |  |  |  | 
14 | 14 (LYFDDSSNVILKKYRNMVVR; listed as Homo sapiens) [compound 14] | + | + | + | + | + | — | + | + | + |  |  |  |  |  | 
15 | 15 (FDDSSNVILKKYRNMVVRAS; listed as Homo sapiens) [compound 15] | + | + | + | + | + | — | + | + | + |  |  |  |  |  | 
16 | 16 (DSSNVILKKYRNMVVRASGS; listed as Homo sapiens) [compound 16] | + | + | + | + | + | — | + | + | + |  |  |  |  |  | 
17 | 17 (SSNVILKKYRNMVVRASGSH; listed as Homo sapiens) [compound 17] | + | + | + | + | + | + | + | + | + |  |  |  |  |  | 
18 | 18 (PKPSSAPTQLNAISVLYFDDSSNVILKKYRNMVVRASGSH; listed as Homo sapiens) [compound 18] | + | + | + | + | + | + |  |  |  |  |  |  |  |  | 
19 | 19 (STGSKQRSQNRSKTPKNQEA; listed as Homo sapiens) [compound 19] |  |  |  |  |  |  |  |  |  | — | — | — | — | — | —
20 | 20 (KTPKNQEALRMANVAENSSSSSDQRQACKK; listed as Homo sapiens) [compound 20] |  |  |  |  |  |  |  |  |  | — | — | — | — | — | —
21 | 21 (SSDQRQACKKHELYVSFRDL; listed as Homo sapiens) [compound 21] |  |  |  |  |  |  |  |  |  | — | — | — | — | — | —
